The nature of data set [1]: Test on safe solvent solubility of compound. The note with it: 23° C., ultrasound 30 minutes, visually observed; for Safety solvent solubility test CHN: cyclohexanone (CHN); for Safety solvent solubility test PGME: propylene glycol monomethyl ether (PGME); for Safety solvent solubility test PGMEA: propylene glycol monomethyl ether acetate (PGMEA). Format: physicochemical. How it is done:
(1) Test on Safe Solvent Solubility of Compound
The solubility of the compound in cyclohexanone (CHN), propylene glycol monomethyl ether (PGME), and propylene glycol monomethyl ether acetate (PGMEA) was evaluated according to the following standard using the dissolution amount in each solvent. For the measurement of the dissolution amount, the compound was precisely weighed into a test tube at 23° C., and the target solvent was added thereto at a predetermined concentration. Ultrasound was applied for 30 minutes in an ultrasonic cleaning machine. Then, the state of the liquid was visually observed.
Evaluation A: 20% by mass≤dissolution amount
Evaluation B: 10% by mass≤dissolution amount<20.0% by mass
Evaluation C: Dissolution amount<10% by mass

Data set [2] is described as follows: 10% thermal reduction temperature by thermogravimetry (TG). Format: physicochemical. The settings on record: nitrogen gas stream, 10° C./min to 500° C. How it is done:
(3) Thermal Reduction Temperature
“EXSTAR 6000 DSC” apparatus manufactured by SII NanoTechnology Inc. was used. About 5 mg of a sample was placed in an unsealed container made of aluminum, and the temperature was raised to 500° C. at a temperature increase rate of 10° C./min in a nitrogen gas (30 mL/min) stream. In this operation, 10% thermal reduction temperature was measured.

Take `Oc1ccc(C2=CC(C(c3ccc(I)cc3)c3cc(-c4ccc(O)cc4)ccc3O)C(O)C=C2)cc1` (stereo not drawn) [BiF-I-1]: in data set [1], the “Safety solvent solubility test CHN” value was “A (Evaluation A: 20% by mass≤dissolution amount)”, the “Safety solvent solubility test PGME” value was “A (Evaluation A: 20% by mass≤dissolution amount)” and the “Safety solvent solubility test PGMEA” value is listed as “A (Evaluation A: 20% by mass≤dissolution amount)”. In addition, in data set [2], the “10% thermal reduction temperature” value was not below 300 °C.
As to `COc1cc(I)cc(C(c2cc(C3C=CC(O)=CC3)ccc2O)C2C=C(C3=CCC(O)C=C3)C=CC2O)c1` (stereo not drawn) [BiF-I-2], in data set [1], the “Safety solvent solubility test CHN” value is “A (Evaluation A: 20% by mass≤dissolution amount)”, the “Safety solvent solubility test PGME” value was “A (Evaluation A: 20% by mass≤dissolution amount)” and the “Safety solvent solubility test PGMEA” value is “A (Evaluation A: 20% by mass≤dissolution amount)”. The “10% thermal reduction temperature” value in data set [2] is not below 300 °C.
Turning to `Oc1ccc(-c2ccc(O)c(C(c3cccc(I)c3)c3cc(-c4ccc(O)cc4)ccc3O)c2)cc1` [BiF-I-3], in data set [1], the “Safety solvent solubility test CHN” value was “A (Evaluation A: 20% by mass≤dissolution amount)”, the “Safety solvent solubility test PGME” value was “A (Evaluation A: 20% by mass≤dissolution amount)” and the “Safety solvent solubility test PGMEA” value is “A (Evaluation A: 20% by mass≤dissolution amount)”. Also, in data set [2], the “10% thermal reduction temperature” value was not below 300 °C.

These data come from patent US10642156B2, “Resist base material, resist composition and method for forming resist pattern” (Mitsubishi Gas Chemical Company, Inc., priority 2015, dated 2020).
